Test: xn = mol fraction of the nth substance listed
Settings: 101 kPa, Liquid, Vibrating tube method

CC(C)CO [2-methyl-1-propanol] + CC(=O)O
mass density [kg/m3]
Settings | 293.15 K | 298.15 K | 303.15 K | 313.15 K | 323.15 K | 333.15 K
x2 = 0.0813 | 814.94 | 810.95 | 806.92 | 798.73 | 790.31 | 781.64
x2 = 0.1574 | 827.82 | 823.71 | 819.56 | 811.15 | 802.54 | 793.68
x2 = 0.2405 | 842.93 | 838.69 | 834.42 | 825.76 | 816.92 | 807.86
x2 = 0.319 | 858.14 | 853.78 | 849.39 | 840.5 | 831.45 | 822.19
x2 = 0.4018 | 875.36 | 870.87 | 866.35 | 857.21 | 847.92 | 838.44
x2 = 0.4803 | 892.9 | 888.27 | 883.63 | 874.24 | 864.7 | 855.01
x2 = 0.5599 | 911.99 | 907.22 | 902.44 | 892.78 | 883 | 873.07
x2 = 0.6396 | 932.48 | 927.56 | 922.63 | 912.7 | 902.65 | 892.49
x2 = 0.7199 | 954.87 | 949.79 | 944.71 | 934.47 | 924.16 | 913.72
x2 = 0.7998 | 979.04 | 973.8 | 968.56 | 958.02 | 947.4 | 936.71
x2 = 0.8786 | 1004.98 | 999.57 | 994.16 | 983.31 | 972.4 | 961.43
x2 = 0.9595 | 1033.93 | 1028.35 | 1022.77 | 1011.59 | 1000.4 | 989.16

CC(=O)O [acetic acid] + CCC(C)O
mass density [kg/m3]
Settings | 293.15 K | 298.15 K | 303.15 K | 313.15 K | 323.15 K | 333.15 K
x1 = 0.0822 | 819.04 | 814.82 | 810.53 | 801.69 | 792.5 | 782.93
x1 = 0.1628 | 832.16 | 827.83 | 823.44 | 814.46 | 805.17 | 795.54
x1 = 0.2395 | 845.65 | 841.23 | 836.76 | 827.62 | 818.22 | 808.51
x1 = 0.321 | 861.12 | 856.58 | 852 | 842.7 | 833.16 | 823.36
x1 = 0.3979 | 876.8 | 872.17 | 867.49 | 858.02 | 848.33 | 838.39
x1 = 0.4759 | 893.89 | 889.16 | 884.37 | 874.69 | 864.83 | 854.77
x1 = 0.5611 | 914 | 909.12 | 904.22 | 894.32 | 884.26 | 874
x1 = 0.6399 | 934.04 | 929.04 | 924.01 | 913.87 | 903.62 | 893.19
x1 = 0.7197 | 955.97 | 950.84 | 945.68 | 935.3 | 924.81 | 914.19
x1 = 0.8003 | 980.06 | 974.78 | 969.49 | 958.84 | 948.1 | 937.26
x1 = 0.8796 | 1005.8 | 1000.35 | 994.91 | 983.99 | 973.01 | 961.97
x1 = 0.9365 | 1025.67 | 1020.12 | 1014.58 | 1003.46 | 992.31 | 981.11
x1 = 0.9586 | 1033.71 | 1028.12 | 1022.54 | 1011.36 | 1000.14 | 988.87
